# Laboratory results: ChEMBL document CHEMBL6096652, “Design, synthesis and anti-tumor evaluation of novel pyrimidine and quinazoline analogues” (Eur J Med Chem, 2025)
# Active and inactive are the calls of the source. No cut-off for these calls is given here.
# Assays:
# B16-F10 [1] = experiment: Induction of apoptosis in mouse B16-F10 cells assessed as late apoptotic cells at 200 nM incubated for 24 hrs by Annexin V-PE/7-AAD staining based flow cytometry (reference value: 4.13 %); assay type: functional
# B16-F10 [2] = experiment: Induction of apoptosis in mouse B16-F10 cells assessed as early apoptotic cells at 100 nM incubated for 24 hrs by Annexin V-PE/7-AAD staining based flow cytometry (reference value: 1.04 %); assay type: functional
# B16-F10 [3] = experiment: Induction of cell cycle arrest in mouse B16-F10 cells assessed as accumulation at G1 phase at 100 nM incubated for 24 hrs by flow cytometry (reference value: 57.91 %); assay type: functional
# A549 = experiment: Antiproliferative activity against human A549 cells incubated for 48 hrs by MTT assay; assay type: functional, cell-based; conditions: A549, 48 h
# B16-F10 [4] = experiment: Induction of cell cycle arrest in mouse B16-F10 cells assessed as accumulation at G2/M phase at 100 nM incubated for 24 hrs by flow cytometry (reference value: 4.25 %); assay type: functional
# B16-F10 [5] = experiment: Induction of apoptosis in mouse B16-F10 cells assessed as early apoptotic cells at 50 nM incubated for 24 hrs by Annexin V-PE/7-AAD staining based flow cytometry (reference value: 1.04 %); assay type: functional
# B16-F10 [6] = experiment: Induction of cell cycle arrest in mouse B16-F10 cells assessed as accumulation at G2/M phase at 200 nM incubated for 24 hrs by flow cytometry (reference value: 4.25 %); assay type: functional
# B16-F10 [7] = experiment: Induction of apoptosis in mouse B16-F10 cells assessed as viable cells at 200 nM incubated for 24 hrs by Annexin V-PE/7-AAD staining based flow cytometry (reference value: 94.5 %); assay type: functional; conditions: read-out: Activity
# B16-F10 [8] = experiment: Induction of apoptosis in mouse B16-F10 cells assessed as total apoptotic cells at 50 nM incubated for 24 hrs by Annexin V-PE/7-AAD staining based flow cytometry (reference value: 5.17 %); assay type: functional
# B16-F10 [9] = experiment: Induction of apoptosis in mouse B16-F10 cells assessed as necrotic cells at 100 nM incubated for 24 hrs by Annexin V-PE/7-AAD staining based flow cytometry (reference value: 0.33 %); assay type: functional
# B16-F10 [10] = experiment: Induction of apoptosis in mouse B16-F10 cells assessed as total apoptotic cells at 200 nM incubated for 24 hrs by Annexin V-PE/7-AAD staining based flow cytometry (reference value: 5.17 %); assay type: functional
# B16-F10 [11] = experiment: Induction of cell cycle arrest in mouse B16-F10 cells assessed as accumulation at G2/M phase incubated for 24 hrs by flow cytometry; assay type: functional, cell-based
# B16-F10 [12] = experiment: Induction of apoptosis in mouse B16-F10 cells assessed as necrotic cells at 50 nM incubated for 24 hrs by Annexin V-PE/7-AAD staining based flow cytometry (reference value: 0.33 %); assay type: functional
# B16-F10 [13] = experiment: Antitumor activity against mouse B16-F10 cells implanted in C57BL/6 mouse at 15 mg/kg measured after 10 days relative to control; assay type: functional; conditions: B16-F10, 240 h, time 10 day, read-out: TGI
# Tubulin (Homo sapiens) [14] = target: T1, Tubulin (Homo sapiens) (UniProt P68371+Q9H4B7+P0DPH7+P68366+Q13509+Q71U36+P04350+Q3ZCM7+P07437+P68363+Q9BQE3+Q6PEY2+Q13885+Q9BVA1+Q9BUF5); experiment: Disruption of microtubule polymerization in human HepG2 cells at 100 nM incubated for 12 hrs by immunofluorescence based analysis; assay type: cell-based
# HepG2 = experiment: Antiproliferative activity against human HepG2 cells incubated for 48 hrs by MTT assay; assay type: functional, cell-based; conditions: HepG2, 48 h
# [15] = Toxicity in C57BL/6 mouse implanted with mouse B16-F10 cells assessed as adverse effects at 15 to 30 mg/kg measured after 10 days; assay type: organism-based; conditions: in vivo, 240 h, dose 15-30 mg/kg, time 10 day
# B16-F10 [16] = experiment: Induction of apoptosis in mouse B16-F10 cells assessed as viable cells at 50 nM incubated for 24 hrs by Annexin V-PE/7-AAD staining based flow cytometry (reference value: 94.5 %); assay type: functional; conditions: read-out: Activity
# B16-F10 [17] = experiment: Induction of cell cycle arrest in mouse B16-F10 cells assessed as accumulation at S phase at 100 nM incubated for 24 hrs by flow cytometry (reference value: 37.84 %); assay type: functional
# B16-F10 [18] = experiment: Induction of cell cycle arrest in mouse B16-F10 cells assessed as accumulation at G1 phase at 200 nM incubated for 24 hrs by flow cytometry (reference value: 57.91 %); assay type: functional
# B16-F10 [19] = experiment: Induction of apoptosis in mouse B16-F10 cells assessed as viable cells at 100 nM incubated for 24 hrs by Annexin V-PE/7-AAD staining based flow cytometry (reference value: 94.5 %); assay type: functional; conditions: read-out: Activity
# B16-F10 [20] = experiment: Induction of apoptosis in mouse B16-F10 cells assessed as necrotic cells at 200 nM incubated for 24 hrs by Annexin V-PE/7-AAD staining based flow cytometry (reference value: 0.33 %); assay type: functional
# B16-F10 [21] = experiment: Induction of apoptosis in mouse B16-F10 cells assessed as total apoptotic cells at 100 nM incubated for 24 hrs by Annexin V-PE/7-AAD staining based flow cytometry (reference value: 5.17 %); assay type: functional
# B16-F10 [22] = experiment: Induction of apoptosis in mouse B16-F10 cells assessed as early apoptotic cells at 200 nM incubated for 24 hrs by Annexin V-PE/7-AAD staining based flow cytometry (reference value: 1.04 %); assay type: functional
# B16-F10 [23] = experiment: Induction of apoptosis in mouse B16-F10 cells assessed as late apoptotic cells at 100 nM incubated for 24 hrs by Annexin V-PE/7-AAD staining based flow cytometry (reference value: 4.13 %); assay type: functional
# B16-F10 [24] = experiment: Induction of cell cycle arrest in mouse B16-F10 cells assessed as accumulation at S phase at 50 nM incubated for 24 hrs by flow cytometry (reference value: 37.84 %); assay type: functional
# B16-F10 [25] = experiment: Antitumor activity against mouse B16-F10 cells implanted in C57BL/6 mouse at 30 mg/kg measured after 10 days relative to control; assay type: functional; conditions: B16-F10, 240 h, time 10 day, read-out: TGI
# B16-F10 [26] = experiment: Antiproliferative activity against mouse B16-F10 cells incubated for 48 hrs by MTT assay; assay type: functional, cell-based; conditions: B16-F10, 48 h
# Tubulin (Homo sapiens) [27] = target: T1, Tubulin (Homo sapiens); experiment: (§1) Inhibition of tubulin polymerization (unknown origin) measured upto 20 mins by absorbance based assay; assay type: protein-complex assay
# Tubulin = experiment: as §1; assay type: protein-complex assay, Homo sapiens
# B16-F10 [28] = experiment: Induction of cell cycle arrest in mouse B16-F10 cells assessed as accumulation at G2/M phase at 50 nM incubated for 24 hrs by flow cytometry (reference value: 4.25 %); assay type: functional
# B16-F10 [29] = experiment: Antitumor activity against mouse B16-F10 cells implanted in C57BL/6 mouse assessed as reduction in tumor volume at 15 mg/kg measured after 10 days; assay type: functional, organism-based; conditions: time 10.0 day
# MCF7 = experiment: Antiproliferative activity against human MCF7 cells incubated for 48 hrs by MTT assay; assay type: functional, cell-based; conditions: MCF7, 48 h
# B16-F10 [30] = experiment: Inhibition of cell migration in mouse B16-F10 cells assessed as recovery of scratch area at 100 nM incubated for 24 hrs by wound healing assay (reference value: 72.97 %); assay type: functional; parameters: scale not given: the % may be the effect or the level left
# B16-F10 [31] = experiment: Induction of cell cycle arrest in mouse B16-F10 cells assessed as accumulation at G1 phase at 50 nM incubated for 24 hrs by flow cytometry (reference value: 57.91 %); assay type: functional
# B16-F10 [32] = experiment: Induction of cell cycle arrest in mouse B16-F10 cells assessed as accumulation at S phase at 200 nM incubated for 24 hrs by flow cytometry (reference value: 37.84 %); assay type: functional
# [33] = Toxicity in C57BL/6 mouse implanted with mouse B16-F10 cells assessed as body weight change at 15 to 30 mg/kg measured after 10 days; assay type: organism-based; conditions: in vivo, 240 h, dose 15-30 mg/kg, time 10 day
# B16-F10 [34] = experiment: Inhibition of cell migration in mouse B16-F10 cells assessed as recovery of scratch area at 200 nM incubated for 24 hrs by wound healing assay (reference value: 72.97 %); assay type: functional; parameters: scale not given: the % may be the effect or the level left
# B16-F10 [35] = experiment: Inhibition of cell migration in mouse B16-F10 cells assessed as recovery of scratch area at 50 nM incubated for 24 hrs by wound healing assay (reference value: 72.97 %); assay type: functional; parameters: scale not given: the % may be the effect or the level left
# B16-F10 [36] = experiment: Induction of apoptosis in mouse B16-F10 cells assessed as late apoptotic cells at 50 nM incubated for 24 hrs by Annexin V-PE/7-AAD staining based flow cytometry (reference value: 4.13 %); assay type: functional
structure (smiles),measurement,setting,value
COc1cc(Nc2ccnc(-c3cccc4c3ccn4C)n2)cc(OC)c1OC,Activity,B16-F10 [1],18.8%
same,Activity,B16-F10 [2],3.58%
same,Activity,B16-F10 [3],11.76%
same,IC50,A549,135 nM
same,Activity,B16-F10 [4],65.06%
same,Activity,B16-F10 [5],1.71%
same,Activity,B16-F10 [6],82.41%
same,viability at 0.2 µM,B16-F10 [7],77.4%
same,Activity,B16-F10 [8],9.96%
same,Activity,B16-F10 [9],0.52%
same,Activity,B16-F10 [10],22.2%
same,Activity,B16-F10 [11],Dose-dependent-effect
same,Activity,B16-F10 [12],1.7%
same,inhibition in vivo at 15 mg/kg,B16-F10 [13],57.9%
same,Activity,Tubulin (Homo sapiens) [14],Active
same,IC50,HepG2,109 nM
same,Activity,[15],Non-toxic
same,viability at 0.05 µM,B16-F10 [16],88.3%
same,Activity,B16-F10 [17],23.18%
same,Activity,B16-F10 [18],5.91%
same,viability at 0.1 µM,B16-F10 [19],86%
same,Activity,B16-F10 [20],0.36%
same,Activity,B16-F10 [21],13.49%
same,Activity,B16-F10 [22],3.4%
same,Activity,B16-F10 [23],9.91%
same,Activity,B16-F10 [24],32.53%
same,inhibition in vivo at 30 mg/kg,B16-F10 [25],79.6%
same,IC50,B16-F10 [26],98 nM
same,inhibition,Tubulin (Homo sapiens) [27],Dose-dependent-effect
same,IC50,Tubulin,22200 nM
same,Activity,B16-F10 [28],15.61%
same,Activity,B16-F10 [29],Active
same,IC50,MCF7,259 nM
same,Activity,B16-F10 [30],37.37%
same,Activity,B16-F10 [31],51.86%
same,Activity,B16-F10 [32],11.67%
same,Activity,[33],Non-toxic
same,Activity,B16-F10 [34],22.38%
same,Activity,B16-F10 [35],69.89%
same,Activity,B16-F10 [36],8.25%
